Assay [1] has as its system primordial follicles of ovarian cortex. Kind of assay: Culture of ewe ovarian cortex fragments for 10 days: start of growth of primordial follicles. The class given is cell-based. The following applies: for start of growth of the primordial follicles: 10 days culture, vs control fragments; for number of primordial follicles over time / number of primary follicles: D0-D10. As for the experimental part:
Ovaries of adult ewes are collected immediately after slaughter. The ovaries are placed in an organ transport medium without serum (X-vivo, Bio Whittaker, Walkersville, Md., USA) at 10° C. and transported to the laboratory. Approximately 1 h after removal, the cortex is isolated from the medulla then fractionated into slices of 2 mm thickness (1 cm^2, average weight of 212 mg) after rinsing in new X-vivo. The cortex fragments are cultured in an oven under 5% oxygen for 10 days in well plates in the presence of DMEM. The medium is changed every 2 days.
The procedure used is the same as for Example 1, except that the somatostatin is replaced with one of its agonist analogues, namely the synthetic peptide of formula c[Tic-Tyr-DTrp-Lys-Abu-Phe] (hereafter AG1 peptide).
The procedure used is the same as for Example 1, except that the somatostatin is replaced by one of its antagonist analogues, namely the synthetic peptide of formula Cpa-c(DCys-3-Pal-DTrp-NMeLys-Thr-Cys)-2-Nal-NH2 (hereafter ANT1 peptide).

The conditions of assay [2]: co-administered with FSH; infertile patients with polycystic ovary syndrome; cited from earlier work.
For assay [3], the system named is granulosa cells. The conditions noted are these: in vitro, model of granulosa cells; cited from earlier work.
Assay [4] concerns granulosa cells from preovulatory follicles. The conditions noted are these: women, in vitro; cited from earlier work.
Assay [5] relates to granulosa cells. The following applies: pig granulosa cells; cited from earlier work.
Another assay concerns preovulatory oocyte. The following applies: pigs; cited from earlier work.
In assay [6] the test system is pituitary cells producing LH and FSH; preovulatory follicles. The conditions noted are these: rats, in vivo administration; cited from earlier work.
For assay [7] the following is noted: women, in vivo; cited from earlier work.
Assay [8] is described as follows: Envisaged case: patient with polycystic ovary syndrome treated with lanreotide acetate. The conditions noted are these: 120 mg/month. The class given is in vivo, women.

Where a SMILES comes first, the peptide text is derived from it. [ ]: non-standard residue; d: D form. Tic = O=C(O)[C@@H]1Cc2ccccc2CN1; Abu = CC[C@H](N)C(=O)O

Data on 4 compounds can be found in patent publication US20070155659A1, “Use of somatostatin or one of its analogues for preparing a medicament intended to regulate the ovarian follicular reserve in non-menopausal women” (Societe de Conseils de Recherches et D'Application, priority 2003, published 2007).

On to `C[C@H](N)C(=O)NCC(=O)N[C@H]1CSSC[C@@H](C(=O)O)NC(=O)[C@H](CO)NC(=O)[C@H]([C@@H](C)O)NC(=O)[C@H](Cc2ccccc2)NC(=O)[C@H]([C@@H](C)O)NC(=O)[C@H](CCCCN)NC(=O)[C@H](Cc2c[nH]c3ccccc23)NC(=O)[C@H](Cc2ccccc2)NC(=O)[C@H](Cc2ccccc2)NC(=O)[C@H](CC(N)=O)NC(=O)[C@H](CCCCN)NC1=O` [SST14], for which the “start of growth of the primordial follicles” value in assay [1] (SST14 10^−9 M to 10^−6 M, FIGS. 1 and 2) was “very significantly inhibits”. Further, in assay [1] (SST14 10^−9 M to 10^−6 M, FIG. 1), the “number of primordial follicles over time” value was “maintenance over time”. Besides, the “number of primary follicles” value in assay [1] (SST14 10^−9 M to 10^−6 M, FIG. 2) is on record as “absence of increase”.

For the compound `CC[C@@H]1NC(=O)[C@H](CCCCN)NC(=O)[C@@H](Cc2c[nH]c3ccccc23)NC(=O)[C@H](Cc2ccc(O)cc2)NC(=O)[C@@H]2Cc3ccccc3CN2C(=O)[C@H](Cc2ccccc2)NC1=O` [AG1 peptide, c[Tic-Tyr-DTrp-Lys-Abu-Phe]] (cyclo([Tic]Y[dW]K[Abu]F)), in assay [1] (AG1 peptide 10^−9 M, FIG. 4), the “start of growth of the primordial follicles” value is given as “very significantly inhibits”, the “number of primary follicles” value is “absence of increase” and the “number of primordial follicles over time” value is “maintenance over time”.

In the case of `C[C@H](N)C(=O)NCC(=O)N[C@H]1CSSC[C@@H](C(=O)O)NC(=O)[C@H](CO)NC(=O)[C@H]([C@@H](C)O)NC(=O)[C@H](Cc2ccccc2)NC(=O)[C@H]([C@@H](C)O)NC(=O)[C@H](CCCCN)NC(=O)[C@H](Cc2c[nH]c3ccccc23)NC(=O)[C@H](Cc2ccccc2)NC(=O)[C@H](Cc2ccccc2)NC(=O)[C@H](CC(N)=O)NC(=O)[C@H](CCCCN)NC1=O` [SST], the “follicle growth induced by the administration of FSH” value in [2] is “not however accompanied by a significant impact”. Besides, the “aromatase and production of progesterone, stimulated by FSH” value in the assay with granulosa cells [3] is on record as “inhibits”. The “synthesis of IGF-BP1 and of progesterone” value in assay [4] is “inhibiting”. Further, the “increase in cAMP induced by LH and forskolin” value with granulosa cells [5] is “inhibits”. In the assay with preovulatory oocyte, the “nuclear maturation of the preovulatory oocyte” value is on record as “seems to inhibit”. Moreover, the “number of pituitary cells producing LH and FSH and number of preovulatory follicles in the ovary” value in [6] is “seems to reduce”. In assay [7], the “secretion of LH by the pituitary, production of androgens and IGF-1 serum levels” value is recorded as “capable of reducing”; the “serum levels of IGF-BP3” value is reported as “increases”.

For `CC(C)[C@@H]1NC(=O)[C@H](CCCCN)NC(=O)[C@@H](Cc2c[nH]c3ccccc23)NC(=O)[C@H](Cc2ccc(O)cc2)NC(=O)[C@@H](NC(=O)[C@H](N)Cc2ccc3ccccc3c2)CSSC[C@@H](C(=O)N[C@H](C(N)=O)[C@@H](C)O)NC1=O` [lanreotide acetate], in assay [8] (4th month of treatment), the “ovarian volume and number of antral follicles (ultrasound)” value is recorded as “reduction”. Besides, the pregnancy test entry in [8] (8th month of treatment) is listed as “positive”. Moreover, the periods entry in assay [8] (after 3 months of treatment) is reported as “spontaneous periods”.
